Source: a melting point compilation (Tetko et al.; mined from patent text by program, amines drawn as free bases though some values may be those of a salt)

With `O=[N+]([O-])c1cn2c(n1)OC[C@@H](OCc1ccc(Cl)nn1)C2` the melting point was 180 to 184 °C.
Compound `CC(C)n1nc(OCc2ccc3ccccc3n2)cc1CO` has a melting point of 137 to 138 °C.
Compound `CCCc1nc2c(N)nc3cc(OCCNS(C)(=O)=O)ccc3c2s1` has a melting point of 148 to 151 °C.
With `C[C@@H](C(=O)OC(C)(C)C)N(Cc1ccccc1)S(=O)(=O)c1ccc2c(Cl)cnc(Cl)c2c1` the melting point was 92 to 96 °C.
`COC(=O)C=Cc1ccc(NC(C)=O)c(OC)c1` showed a melting point of 137 °C.
`CC(=O)c1cc(C)cc(NC(=O)c2nnnn2Cc2ccccc2)c1O` gave a melting point of 183 to 184 °C.
With `COc1cc(OC)cc(C(=O)NC(=O)Nc2ccc3c(c2)NC(=O)/C3=C\c2[nH]c(C)c(C(=O)O)c2C)c1` the melting point was > 300 °C.
Work on `CSc1ccc(Cc2cccc(-c3c(O)c4ccc(Cl)cc4[nH]c3=O)c2)cc1` yielded a melting point of 296 to 297 °C.
For `Cc1coc(NC(=S)Nc2c(C)cccc2Cl)n1`, the melting point was 222 °C.
In the case of `O=C(NCc1ccccn1)c1nc(-c2ccccc2)c(-c2ccc(=O)n(Cc3ccccc3)n2)s1`, the melting point is reported as 172 to 174 °C.
`N#Cc1ncn2c1[C@@H]1CCN1C(=O)c1c-2cccc1C(F)(F)F` gave a melting point of 115 to 119 °C.
For `COc1ccc(-n2c(Cn3ccnc3)nc3ccccc32)cc1`, the melting point was 113 to 114 °C.
`c1ccc(COc2cccc3c2NCC3)cc1` showed a melting point of 58 to 60 °C.
`COC(=O)CC(C(OC)OC)C(C)(C)S(=O)(=O)c1ccc(C)cc1` (stereo unspecified) gave a melting point of 110 °C.
In the case of `CCc1cccc(Nc2nc(OCC3CCCCC3)c3[nH]cnc3n2)c1`, the melting point is reported as 180 to 183 °C.
For `COc1ccc(/C=C/C#N)cc1OC`, the melting point was 93 to 98 °C.
Work on `CC(=O)Nc1c(C(=O)c2cccc(NS(C)(=O)=O)c2)[nH]c2cc(Cl)ccc12` yielded a melting point of 133 to 142 °C.
For `CN(C)c1cncc(-c2nc(=O)c3ccccc3s2)n1`, the melting point was 248 to 249 °C.
With `COc1ccc(-c2cc(Cl)on2)cc1` the melting point was 82 to 83 °C.
In the case of `N#CCN(CP(=O)(Oc1ccccc1)Oc1ccccc1)N=O`, the melting point is reported as 76 to 78 °C.
Compound `O=C(O)c1c[nH]c(Sc2cc(Cl)cc(Cl)c2)c1` has a melting point of 169 to 172 °C.
With `CCNc1ccc2c(c1)Cc1c-2[nH]c2ccccc12` the melting point was 225 °C.
For `CC=CCOc1ccc(C(=O)C=Cc2cccc(OC)c2)c(O)c1`, the melting point was 97 to 100 °C.
`NS(=O)(=O)c1cc(CO)cc(NCc2ccccc2)c1S(=O)c1ccccc1` (stereo unspecified) gave a melting point of 213 to 214 °C.
With `Oc1cccc(CCCn2ccnc2)c1` the melting point was 110 to 111 °C.
For `COC(=O)C1=Cc2cc(-c3ccc(F)cc3)ccc2S(=O)(=O)CC1`, the melting point was 180 to 183 °C.
`CSc1ccc(Cl)c(C(=O)Nc2ccc(-n3nc(C4CC4)cc3C3CC3)cc2)c1` showed a melting point of 168 to 173 °C.
For `Cc1ccc(CCC(C)NCC(O)c2cc3ccccc3o2)cc1` (stereo unspecified), the melting point was 83 to 84 °C.
With `N#Cc1ccc(-c2ccc(Cl)c(OC3SCC(O)C(O)C3O)c2)cn1` (stereo unspecified) the melting point was 192 °C.
For `CCCC(=O)C1CCC2C3CCC4CC(O)CCC4(C)C3C(=O)CC12C` (stereo unspecified), the melting point was 112 to 113 °C.
For `C[Si]1(C)CC[Si](C)(C)N1c1ccc(Br)cn1`, the melting point was 50.4 to 55.8 °C.
`O=C(c1ccc(Cl)cc1)c1ccc(CSC(F)(F)F)cc1` showed a melting point of 63 to 65 °C.
For `COC(=O)C(C#N)C(c1ccccc1OC)c1ccnc2ccccc12` (stereo unspecified), the melting point was 169 to 171 °C.
Compound `C#CCN(C(=O)n1oc(C)c(Cl)c1=O)c1ccc(C)cc1` has a melting point of 79 °C.
With `COC(=O)c1ccc(C(=O)C(=O)c2ccc3c(c2)C(C)(C)CCC3(C)C)cc1` the melting point was 93 to 96 °C.
Work on `COc1cc(C=CC(=O)Nc2cnc3c(C)cc(C)cc3c2-c2ccccc2Cl)cc(OC)c1OC(C)=O` yielded a melting point of 152 to 154 °C.
With `COC(=O)c1ccc(C(=O)N[C@@H](CC(C)C)C(=O)N[C@@H](C(C)C)[C@@H](O)c2c(-c3ccccc3)c2=O)cc1` the melting point was 125 to 128 °C.
`COC(=O)c1sc2ccc(OC)cc2c1OC(C)C#N` (stereo unspecified) gave a melting point of 127 to 129 °C.
With `Cc1cccc(C)c1NC(=S)CC(=O)Nc1ccc(-c2ncn(-c3ccc(OC(F)(F)F)cc3)n2)cc1` the melting point was 178 to 182 °C.
For `CC(C)(C)c1cc(-c2nc(Br)no2)cc(C(C)(C)C)c1O`, the melting point was 113 to 115 °C.
`CCc1cccc2c1N(CC(=O)N1CC3CCC(CC3)C1)C(=O)C(NC(=O)Nc1cccc(-c3nnn[nH]3)c1)N=C2c1ccccc1F` (stereo unspecified) gave a melting point of 226 to 232 °C.
In the case of `CC1(C)CC(=O)C=C(c2ccc(OCC(=O)O)c(Cl)c2Cl)C1`, the melting point is reported as 178 to 180 °C.
`CCCCOc1nc(N)c2[nH]c(=O)n(CCSc3cccc(CC(=O)O)c3)c2n1` gave a melting point of 205 to 207 °C.
With `CC(C(=O)CCl)c1ccc(-c2ccccc2)c(F)c1` (stereo unspecified) the melting point was 57 to 59 °C.
Compound `O=S(=O)(N[C@H]1CC[C@H](CCN2CCC(c3cccc4c3CCO4)CC2)CC1)c1ccccc1` has a melting point of 130 °C.
For `CCCc1c(CSc2nnc(SCC(=O)O)s2)ccc(C(C)=O)c1O`, the melting point was 116 to 118 °C.
Compound `CC[C@H]1CN(c2ccc3c(=O)c(C(=O)O)cn([C@@H]4C[C@@H]4F)c3c2C)C[C@H]1N` has a melting point of 232 to 234 °C.
For `CC(C)(C)[Si](OCC#Cc1ccc2ncc3c(c2c1)C(O)CCC3)(c1ccccc1)c1ccccc1` (stereo unspecified), the melting point was 132 to 133 °C.
`CC1(C)CC(CS(=O)(=O)NCC(=O)O)c2cc(OCc3ccccc3)ccc2O1` (stereo unspecified) gave a melting point of 131 °C.
Work on `CC(=O)OC1c2ccccc2Oc2ccccc21` yielded a melting point of 109 to 112 °C.
`FC(F)(F)c1cccc(N2CCC(N=Cc3cnc4ccccc4c3)=N2)c1` showed a melting point of 209 to 210 °C.
`CC(C)n1nc(-c2c(-c3ccccc3)nn3ccc(N4CCN(C(=O)c5ccccc5)CC4)cc23)ccc1=O` gave a melting point of 124 to 126 °C.
`CNC(=S)n1nc(-c2ccc(Cl)c3ccccc23)nc1N` gave a melting point of 270 to 272 °C.
`CCCSc1c[nH]nc1C1=CCCN(C)C1` showed a melting point of 111 °C.
`COc1ccc(CN2c3ncccc3NC(=O)c3cccnc32)cc1` gave a melting point of 209 to 210 °C.
`O=C(O)Cc1ccc(Oc2ccc(C(F)(F)F)cn2)c(Cl)c1` gave a melting point of 138 to 139 °C.
`CCCn1nc(-c2ccc(OC(=O)CC)cc2)c2cccc(Cl)c21` showed a melting point of 66 to 67 °C.
Work on `O=C(O)c1ccc(C2=CCC3CCC2C3)cc1` (stereo unspecified) yielded a melting point of 180 to 181 °C.
`CN(C)c1ccc(NC(=O)C(CS)Cc2ccccc2)cc1C(=O)O` (stereo unspecified) gave a melting point of 85 to 89 °C.
With `IC12C3C4C5C3C1C5C42` (stereo unspecified) the melting point was 32 to 33 °C.
`O=C1CCCN1C(=O)Oc1cccc(Cl)c1` gave a melting point of 88 to 89 °C.
For `N#Cc1ccc2[nH]cc(C=C[N+](=O)[O-])c2c1`, the melting point was 217 to 220 °C.
For `NC(=O)C(Br)c1c(Cl)cc([N+](=O)[O-])cc1Cl` (stereo unspecified), the melting point was 195 to 197 °C.
With `CC(C)CC(=O)Nc1nc(-c2ccccc2)c(-c2ccc(=O)n(C(C)C)n2)s1` the melting point was 198 to 199 °C.
In the case of `Cc1ccc(S(=O)(=O)NC(C)(C)CO)cc1NC(=O)c1cnn2c(C3CC3)cc(-c3ccc(C(F)(F)F)cc3)nc12`, the melting point is reported as 232 to 233 °C.
For `C=Cc1ccc(-c2ccccc2F)cc1`, the melting point was 38 °C.
`CC1=CC(O)C(OC(=O)C=Cc2ccc(N)cc2)C(C)(C)CC1=O` (stereo unspecified) showed a melting point of 49 to 50 °C.
Compound `CNc1ccccc1C(=O)n1nc(O)c2cc(N)ccc21` has a melting point of 169 to 170 °C.
`C=CCc1c(O)c(C)cc2c1C(C)(C)CC1(CC(C)(C)c3cc(O)c(C)cc3O1)O2` (stereo unspecified) gave a melting point of 102 to 104 °C.
`CCNC(=NC#N)NCc1cccnc1` gave a melting point of 177 to 179 °C.
In the case of `CCOC(=O)C(Cc1ccc(C(C)C)cc1)C(=O)N[C@@H](CC(C)C)C(=O)OC(C)(C)C` (stereo partly specified), the melting point is reported as 68 to 73 °C.
Compound `Cc1ccccc1-c1ccc2c(c1)CN(CCNC(=O)C1CCCC1)C(N)=N2` has a melting point of 43 to 46 °C.
For `CCc1ccc(S(N)(=O)=O)cc1`, the melting point was 104 to 108 °C.
`Cn1c(CNCC2CCOC2)cc2cc(NC(=O)c3ccc(OC[C@@H]4CCCO4)cc3)ccc21` (stereo partly specified) showed a melting point of 128 to 129 °C.
`Cc1cc(F)ccc1-c1cc(OC2SCC(O)C(O)C2O)ccn1` (stereo unspecified) gave a melting point of 147 °C.
In the case of `CC(C)N(C(=O)CC(C#N)(CCN1CCCCC1)c1ccccc1Cl)C(C)C` (stereo unspecified), the melting point is reported as 83 to 85 °C.
Work on `COC(=O)C(CC(=O)c1ccc(Oc2ccccc2)cc1)SC(C)=O` (stereo unspecified) yielded a melting point of 59 to 61 °C.
Compound `Cc1nc2c3c(c(CO)cc2n1C)CCC(c1ccccc1)O3` (stereo unspecified) has a melting point of 279 to 281 °C.
For `Brc1ccc(Cn2cnc3ccccc32)cc1`, the melting point was 93 to 95 °C.
For `O=C(O)c1ccc2c(c1)Sc1ccc(F)cc1C(O)C2` (stereo unspecified), the melting point was 204 to 210 °C.
With `O=C(O)COc1cccc(CSc2nc(-c3ccccc3)c(-c3ccccc3)[nH]2)c1` the melting point was 233 to 235 °C.
Compound `c1ccc(C2CN(CCc3ccccn3)Cc3c2[nH]c2ccccc32)cc1` (stereo unspecified) has a melting point of 190 to 192 °C.
`CCc1nc2c(N)nc3cc(OCC(=O)N4CCOCC4)ccc3c2n1CC(C)C` gave a melting point of 219 to 220 °C.
For `CC(C)Cn1nc(-c2ccc(F)c(F)c2)cc(C(=O)O)c1=O`, the melting point was 163 to 164 °C.
`CN(C)Cc1ccc(SC2CCN(C(c3ccccc3)(c3ccccc3)c3ccccc3)CC2)cc1` showed a melting point of 163 °C.
Work on `O=[N+]([O-])c1sc(I)nc1I` yielded a melting point of 135 °C.
For `CC(=O)CCc1ccc(C(=O)c2ccc(Cl)cc2)cc1`, the melting point was 91 to 92 °C.
For `COC(=O)C(NC(=O)Nc1ccc(C=NO)cc1)C(=O)OC`, the melting point was 162 °C.
Compound `O=C(C(=O)N(CC(F)(F)F)S(=O)(=O)C(F)(F)F)N(CC(F)(F)F)S(=O)(=O)C(F)(F)F` has a melting point of 43 to 45 °C.
Work on `O=c1cc(N2CCOCC2)oc2c(-c3ccc(O)c(-c4ccccc4)c3)cccc12` yielded a melting point of 243 to 247 °C.
Compound `CC(=O)OCC(C)(C)C(=O)O` has a melting point of 56 to 59 °C.
`COc1ccc(CCl)c(C)c1OC` gave a melting point of 67 to 68.5 °C.
With `COc1ccc(-c2nnc(C)nc2-c2ccc(OC)cc2)cc1` the melting point was 109 to 113 °C.
Work on `CCCCCC(NC(C)C)=C1C(=O)ON=C1C` yielded a melting point of 99 to 101 °C.
With `CC(=O)C(=CN(C)C)c1ccc(N2CCC(c3ccccc3)CC2)cc1` the melting point was 93 to 100 °C.
`CON=C(Cl)c1ccccc1S(=O)(=O)NC(=O)Nc1nc(C)nc(OC)n1` gave a melting point of 182 to 184 °C.
Compound `COc1c(CNS(=O)(=O)c2ccc(C)cc2)ccc2c1OCO2` has a melting point of 150 to 151 °C.
Work on `COc1ccc(-c2ccc(C3C(CCC(O)c4ccc(F)cc4)C(=O)N3c3ccc(F)cc3)cc2)cc1` (stereo unspecified) yielded a melting point of 103 °C.
Compound `Cc1nc2c(N)nc3ccccc3c2n1CCOCCNC(=O)c1ccccc1` has a melting point of 210 to 212 °C.
Work on `COCCOCCOCCOCCOc1cc(NC(=O)OC(C)(C)C)c(NC(=O)CC(=O)c2cccc(C#N)c2)cc1C#Cc1ccccc1` yielded a melting point of 135 to 136 °C.
With `COC(=O)N1CCC(c2n[nH]c3cc(Cl)ccc23)CC1` the melting point was 132 to 134 °C.
